Reference: patent US20240415914A1, “Water Dispersible Cannabinoid Compositions” (priority 2021, published 2024)

Assay: Stability of cannabinoid and Vitamin E components of Beverage 1 (AB White) stored at 8° C. and 21-25° C., LCMSMS over 570 days
Format: physicochemical
Details: for Stability in AB White, 8° C. (content by LCMSMS): beverage stored at 8° C.; for Stability in AB White, 21-25° C. (content by LCMSMS): beverage stored at 21-25° C.
Procedure: The LCMSMS was calibrated for 0-1000 ng/ml cannabinoids with the same resin material used in the preparation of the concentrates. At each time period, 100 ml of beverage was diluted with 10 ml of methanol and injected into the LCMSMS for analysis.

SMILES: CCCc1cc(O)c2c(c1)OC(C)(C)[C@@H]1CCC(C)=C[C@@H]21 [THCV, delta-9-tetrahydrocannabivarin]
- Stability in AB White, 8° C. (content by LCMSMS) (day 0): 3.6 µg/mL
- Stability in AB White, 8° C. (content by LCMSMS) (day 1): 3.54 µg/mL
- Stability in AB White, 8° C. (content by LCMSMS) (day 2): 3.60 µg/mL
- Stability in AB White, 8° C. (content by LCMSMS) (day 3): 3.55 µg/mL
- Stability in AB White, 8° C. (content by LCMSMS) (day 5): 3.58 µg/mL
- Stability in AB White, 8° C. (content by LCMSMS) (day 8): 3.60 µg/mL
- Stability in AB White, 8° C. (content by LCMSMS) (day 9): 3.61 µg/mL
- Stability in AB White, 8° C. (content by LCMSMS) (day 10): 3.58 µg/mL
- Stability in AB White, 8° C. (content by LCMSMS) (day 11): 3.59 µg/mL
- Stability in AB White, 8° C. (content by LCMSMS) (day 12): 3.50 µg/mL
- Stability in AB White, 8° C. (content by LCMSMS) (day 15): 3.56 µg/mL
- Stability in AB White, 8° C. (content by LCMSMS) (day 16): 3.57 µg/mL
- Stability in AB White, 8° C. (content by LCMSMS) (day 17): 3.61 µg/mL
- Stability in AB White, 8° C. (content by LCMSMS) (day 18): 3.59 µg/mL
- Stability in AB White, 8° C. (content by LCMSMS) (day 19): 3.51 µg/mL
- Stability in AB White, 8° C. (content by LCMSMS) (day 22): 3.60 µg/mL
- Stability in AB White, 8° C. (content by LCMSMS) (day 23): 3.55 µg/mL
- Stability in AB White, 8° C. (content by LCMSMS) (day 24): 3.56 µg/mL
- Stability in AB White, 8° C. (content by LCMSMS) (day 25): 3.56 µg/mL
- Stability in AB White, 8° C. (content by LCMSMS) (day 26): 3.63 µg/mL
- Stability in AB White, 8° C. (content by LCMSMS) (day 29): 3.52 µg/mL
- Stability in AB White, 8° C. (content by LCMSMS) (day 30): 3.59 µg/mL
- Stability in AB White, 8° C. (content by LCMSMS) (day 60): 3.58 µg/mL
- Stability in AB White, 8° C. (content by LCMSMS) (day 90): 3.56 µg/mL
- Stability in AB White, 8° C. (content by LCMSMS) (day 120): 3.56 µg/mL
- Stability in AB White, 8° C. (content by LCMSMS) (day 150): 3.55 µg/mL
- Stability in AB White, 8° C. (content by LCMSMS) (day 180): 3.59 µg/mL
- Stability in AB White, 8° C. (content by LCMSMS) (day 210): 3.44 µg/mL
- Stability in AB White, 8° C. (content by LCMSMS) (day 240): 3.56 µg/mL
- Stability in AB White, 8° C. (content by LCMSMS) (day 270): 3.47 µg/mL
- Stability in AB White, 8° C. (content by LCMSMS) (day 300): 3.46 µg/mL
- Stability in AB White, 8° C. (content by LCMSMS) (day 330): 3.52 µg/mL
- Stability in AB White, 8° C. (content by LCMSMS) (day 360): 3.50 µg/mL
- Stability in AB White, 8° C. (content by LCMSMS) (day 390): 3.47 µg/mL
- Stability in AB White, 8° C. (content by LCMSMS) (day 420): 3.49 µg/mL
- Stability in AB White, 8° C. (content by LCMSMS) (day 450): 3.44 µg/mL
- Stability in AB White, 8° C. (content by LCMSMS) (day 480): 3.44 µg/mL
- Stability in AB White, 8° C. (content by LCMSMS) (day 510): 3.34 µg/mL
- Stability in AB White, 8° C. (content by LCMSMS) (day 540): 3.32 µg/mL
- Stability in AB White, 8° C. (content by LCMSMS) (day 570): 3.30 µg/mL
- Stability in AB White, 21-25° C. (content by LCMSMS) (day 0): 3.6 µg/mL
- Stability in AB White, 21-25° C. (content by LCMSMS) (day 1): 3.48 µg/mL
- Stability in AB White, 21-25° C. (content by LCMSMS) (day 2): 3.58 µg/mL
- Stability in AB White, 21-25° C. (content by LCMSMS) (day 3): 3.54 µg/mL
- Stability in AB White, 21-25° C. (content by LCMSMS) (day 5): 3.55 µg/mL
- Stability in AB White, 21-25° C. (content by LCMSMS) (day 8): 3.63 µg/mL
- Stability in AB White, 21-25° C. (content by LCMSMS) (day 9): 3.55 µg/mL
- Stability in AB White, 21-25° C. (content by LCMSMS) (day 10): 3.55 µg/mL
- Stability in AB White, 21-25° C. (content by LCMSMS) (day 11): 3.59 µg/mL
- Stability in AB White, 21-25° C. (content by LCMSMS) (day 12): 3.47 µg/mL
- Stability in AB White, 21-25° C. (content by LCMSMS) (day 15): 3.48 µg/mL
- Stability in AB White, 21-25° C. (content by LCMSMS) (day 16): 3.60 µg/mL
- Stability in AB White, 21-25° C. (content by LCMSMS) (day 17): 3.51 µg/mL
- Stability in AB White, 21-25° C. (content by LCMSMS) (day 18): 3.50 µg/mL
- Stability in AB White, 21-25° C. (content by LCMSMS) (day 19): 3.59 µg/mL
- Stability in AB White, 21-25° C. (content by LCMSMS) (day 22): 3.52 µg/mL
- Stability in AB White, 21-25° C. (content by LCMSMS) (day 23): 3.57 µg/mL
- Stability in AB White, 21-25° C. (content by LCMSMS) (day 24): 3.63 µg/mL
- Stability in AB White, 21-25° C. (content by LCMSMS) (day 25): 3.54 µg/mL
- Stability in AB White, 21-25° C. (content by LCMSMS) (day 26): 3.55 µg/mL
- Stability in AB White, 21-25° C. (content by LCMSMS) (day 29): 3.62 µg/mL
- Stability in AB White, 21-25° C. (content by LCMSMS) (day 30): 3.48 µg/mL
- Stability in AB White, 21-25° C. (content by LCMSMS) (day 60): 3.50 µg/mL
- Stability in AB White, 21-25° C. (content by LCMSMS) (day 90): 3.47 µg/mL
- Stability in AB White, 21-25° C. (content by LCMSMS) (day 120): 3.45 µg/mL
- Stability in AB White, 21-25° C. (content by LCMSMS) (day 150): 3.54 µg/mL
- Stability in AB White, 21-25° C. (content by LCMSMS) (day 180): 3.52 µg/mL
- Stability in AB White, 21-25° C. (content by LCMSMS) (day 210): 3.40 µg/mL
- Stability in AB White, 21-25° C. (content by LCMSMS) (day 240): 3.41 µg/mL
- Stability in AB White, 21-25° C. (content by LCMSMS) (day 270): 3.56 µg/mL
- Stability in AB White, 21-25° C. (content by LCMSMS) (day 300): 3.52 µg/mL
- Stability in AB White, 21-25° C. (content by LCMSMS) (day 330): 3.55 µg/mL
- Stability in AB White, 21-25° C. (content by LCMSMS) (day 360): 3.49 µg/mL
- Stability in AB White, 21-25° C. (content by LCMSMS) (day 390): 3.40 µg/mL
- Stability in AB White, 21-25° C. (content by LCMSMS) (day 420): 3.46 µg/mL
- Stability in AB White, 21-25° C. (content by LCMSMS) (day 450): 3.47 µg/mL
- Stability in AB White, 21-25° C. (content by LCMSMS) (day 480): 3.30 µg/mL
- Stability in AB White, 21-25° C. (content by LCMSMS) (day 510): 3.32 µg/mL
- Stability in AB White, 21-25° C. (content by LCMSMS) (day 540): 3.44 µg/mL
- Stability in AB White, 21-25° C. (content by LCMSMS) (day 570): 3.30 µg/mL
